Reference: the Kinase Knowledgebase extract (Sharma et al. 2016)

Target: PIK3CG (human) (UniProt P48736)
Assay: Assessment of PIK3CG Kinase Activity

PIK3CG (human), sequence (P48736 whole entry, looked up): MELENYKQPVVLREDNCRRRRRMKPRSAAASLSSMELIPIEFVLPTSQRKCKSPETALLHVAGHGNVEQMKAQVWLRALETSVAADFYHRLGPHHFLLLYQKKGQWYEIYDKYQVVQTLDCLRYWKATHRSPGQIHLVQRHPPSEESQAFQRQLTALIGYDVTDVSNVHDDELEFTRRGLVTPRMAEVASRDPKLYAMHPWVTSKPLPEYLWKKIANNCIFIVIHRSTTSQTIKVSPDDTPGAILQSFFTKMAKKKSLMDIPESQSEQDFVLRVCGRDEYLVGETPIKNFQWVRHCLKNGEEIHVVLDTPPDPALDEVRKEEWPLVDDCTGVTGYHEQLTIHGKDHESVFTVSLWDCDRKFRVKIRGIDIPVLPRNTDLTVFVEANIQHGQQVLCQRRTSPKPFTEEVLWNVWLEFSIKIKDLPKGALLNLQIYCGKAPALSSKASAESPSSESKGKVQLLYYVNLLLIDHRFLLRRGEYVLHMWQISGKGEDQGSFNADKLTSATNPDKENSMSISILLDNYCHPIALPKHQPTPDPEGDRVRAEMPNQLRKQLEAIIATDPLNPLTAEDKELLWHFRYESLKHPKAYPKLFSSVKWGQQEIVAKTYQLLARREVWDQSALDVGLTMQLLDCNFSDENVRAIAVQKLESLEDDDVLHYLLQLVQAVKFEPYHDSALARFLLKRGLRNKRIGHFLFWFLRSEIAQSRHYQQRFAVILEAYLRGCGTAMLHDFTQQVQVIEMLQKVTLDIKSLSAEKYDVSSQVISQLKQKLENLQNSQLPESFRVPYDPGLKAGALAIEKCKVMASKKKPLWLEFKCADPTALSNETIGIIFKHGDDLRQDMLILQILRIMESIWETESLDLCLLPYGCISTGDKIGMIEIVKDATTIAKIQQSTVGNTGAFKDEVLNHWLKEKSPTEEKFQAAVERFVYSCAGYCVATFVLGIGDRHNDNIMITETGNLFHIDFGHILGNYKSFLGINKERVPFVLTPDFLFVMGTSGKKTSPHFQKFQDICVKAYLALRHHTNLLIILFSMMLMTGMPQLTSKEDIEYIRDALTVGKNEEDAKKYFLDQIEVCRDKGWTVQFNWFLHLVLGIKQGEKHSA

Row | Structure (SMILES) | IC50 [nM]
1 | CC(C)(C)OC(=O)N1CCCC(CNC(=O)Nc2nc3c(s2)-c2nc(-c4ccccc4Cl)ncc2CC3)C1 (stereo unspecified) | < 800
2 | O=C(NCc1cccc(C(=O)N2CCOCC2)c1)Nc1nc2c(s1)-c1nc(-c3ccccc3Cl)ncc1CC2 | < 800
3 | O=C(NCC1CC1)Nc1nc2c(s1)-c1nc(-c3ccccc3Cl)ncc1CC2 | < 800
4 | CC(C)(C)OC(=O)N1CCN(c2ccc(NC(=O)Nc3nc4c(s3)-c3nc(-c5ccccc5Cl)ncc3CC4)cc2)CC1 | < 800
5 | O=C(NCc1cc(C2CC2)n[nH]1)Nc1nc2c(s1)-c1nc(-c3cccc(F)c3Cl)ncc1CC2 | < 800
6 | O=C(Nc1nc2c(s1)-c1nc(-c3ccccc3Cl)ncc1CC2)N1CC[C@H](NS(=O)(=O)N2CCOCC2)C1 | < 800
7 | O=C(Nc1ccc(N2CCNCC2)cc1)Nc1nc2c(s1)-c1nc(-c3ccccc3Cl)ncc1CC2 | < 800
8 | CC(C)(C)CNC(=O)Nc1nc2c(s1)-c1nc(-c3ccccc3Cl)ncc1CC2 | < 800
9 | O=C(NCc1ccc2cc[nH]c2c1)Nc1nc2c(s1)-c1nc(-c3ccccc3Cl)ncc1CC2 | < 800
10 | CC(C)CC(=O)N[C@@H]1CCN(C(=O)Nc2nc3c(s2)-c2nc(-c4ccccc4Cl)ncc2CC3)C1 | < 800
11 | O=C(N[C@H]1CCN(C(=O)Nc2nc3c(s2)-c2nc(-c4ccccc4Cl)ncc2CC3)C1)C(F)F | < 800
12 | CCn1cc(CNC(=O)Nc2nc3c(s2)-c2nc(-c4ccccc4Br)ncc2CC3)cn1 | < 800
13 | O=C(NCCC(=O)N1CCOCC1)Nc1nc2c(s1)-c1nc(-c3ccccc3Cl)ncc1CC2 | < 800
14 | O=C(Nc1nc2c(s1)-c1nc(-c3ccccc3Cl)ncc1CC2)N1CCOCC1 | < 800
15 | O=C(NCC1CCCN(c2ncccn2)C1)Nc1nc2c(s1)-c1nc(-c3ccccc3Cl)ncc1CC2 (stereo unspecified) | < 800
16 | CS(=O)(=O)N[C@@H]1CCN(C(=O)Nc2nc3c(s2)-c2nc(-c4ccccc4Cl)ncc2CC3)C1 | < 800
17 | CC(C)(C)OC(=O)CCNC(=O)Nc1nc2c(s1)-c1nc(-c3ccccc3Cl)ncc1CC2 | < 800
18 | O=C(NCc1ccn[nH]1)Nc1nc2c(s1)-c1nc(-c3ccccc3Cl)ncc1CC2 | < 800
19 | CC(C)(C)c1ncc2c(n1)-c1sc(NC(=O)NCc3cccc(N4CCNC4=O)c3)nc1CC2 | < 800
20 | O=C(Nc1nc2c(s1)-c1nc(-c3ccccc3Cl)ncc1CC2)N1CCCC(c2ccccc2O)C1 (stereo unspecified) | < 800
21 | O=C1CCC(NC(=O)Nc2nc3c(s2)-c2nc(-c4ccccc4Cl)ncc2CC3)C(c2ccccc2)N1 (stereo unspecified) | < 800
22 | CC(C)(C)c1cc(CNC(=O)Nc2nc3c(s2)-c2nc(-c4ccccc4Cl)ncc2CC3)[nH]n1 | < 800
23 | CC(C)CN(C)C(=O)N[C@H]1CCN(C(=O)Nc2nc3c(s2)-c2nc(-c4ccccc4Cl)ncc2CC3)C1 | < 800
24 | Cn1cc(CNC(=O)Nc2nc3c(s2)-c2nc(-c4ccccc4C(F)(F)F)ncc2CC3)cn1 | < 800
25 | O=C(NCc1cccc(C(=O)NC2CCCCC2)c1)Nc1nc2c(s1)-c1nc(-c3ccccc3Cl)ncc1CC2 | < 800
26 | O=C(NCc1nnn[nH]1)Nc1nc2c(s1)-c1nc(-c3ccccc3Cl)ncc1CC2 | < 800
27 | O=C(NCc1ccco1)Nc1nc2c(s1)-c1nc(-c3ccccc3Cl)ncc1CC2 | < 800
28 | CN1CCN(C(=O)N[C@H]2CCN(C(=O)Nc3nc4c(s3)-c3nc(-c5ccccc5Cl)ncc3CC4)C2)CC1 | < 800

Row | Structure (SMILES) | IC50 [nM]
29 | CCn1cc(CNC(=O)Nc2nc3c(s2)-c2nc(-c4ccccc4Cl)ncc2CC3)cn1 | < 800
30 | CNC(=O)Nc1nc2c(s1)-c1nc(-c3cccc(F)c3Cl)ncc1CC2 | < 800
31 | CNC(=O)Nc1nc2c(s1)-c1nc(-c3ccccc3Br)ncc1CC2 | < 800
32 | COc1ccccc1C1CCN(C(=O)Nc2nc3c(s2)-c2nc(-c4ccccc4Cl)ncc2CC3)C1 (stereo unspecified) | < 800
33 | O=C(NCCc1ccncc1)Nc1nc2c(s1)-c1nc(-c3ccccc3Cl)ncc1CC2 | < 800
34 | O=C(Nc1nc2c(s1)-c1nc(-c3ccccc3Cl)ncc1CC2)N1CCC2(CC1)C(=O)NCN2c1ccccc1 | < 800
35 | CC(C)CNC(=O)Nc1nc2c(s1)-c1nc(-c3ccccc3Cl)ncc1CC2 | < 800
36 | Cc1nn(C)cc1CNC(=O)Nc1nc2c(s1)-c1nc(-c3ccccc3Cl)ncc1CC2 | < 800
37 | COCCN(C)C(=O)N[C@H]1CCN(C(=O)Nc2nc3c(s2)-c2nc(-c4ccccc4Cl)ncc2CC3)C1 | < 800
38 | CCNC(=O)Nc1nc2c(s1)-c1nc(-c3ccccc3Cl)ncc1CC2 | < 800
39 | CC(C)CNC(=O)CCNC(=O)Nc1nc2c(s1)-c1nc(-c3ccccc3Cl)ncc1CC2 | < 800
40 | CC(C)NC(=O)CCNC(=O)Nc1nc2c(s1)-c1nc(-c3ccccc3Cl)ncc1CC2 | < 800
41 | CC(C)NC(=O)Nc1nc2c(s1)-c1nc(-c3ccccc3Cl)ncc1CC2 | < 800
42 | CC(C)CCNC(=O)Nc1nc2c(s1)-c1nc(-c3ccccc3Cl)ncc1CC2 | < 800
43 | CN(C)S(=O)(=O)Nc1cccc(CNC(=O)Nc2nc3c(s2)-c2nc(-c4ccccc4Cl)ncc2CC3)c1 | < 800
44 | CN(C)C(=O)Nc1nc2c(s1)-c1nc(-c3ccccc3Br)ncc1CC2 | < 800
45 | O=C(NCc1cc(C2CC2)n[nH]1)Nc1nc2c(s1)-c1nc(-c3ccccc3Br)ncc1CC2 | < 800
46 | Cn1cc(CCNC(=O)Nc2nc3c(s2)-c2nc(-c4ccccc4Cl)ncc2CC3)cn1 | < 800
47 | CN(C)C(=O)Nc1nc2c(s1)-c1nc(-c3ccccc3Cl)ncc1CC2 | < 800
48 | CCn1cc(CNC(=O)Nc2nc3c(s2)-c2nc(-c4cccc(F)c4Cl)ncc2CC3)cn1 | < 800
49 | CCc1csc(CCNC(=O)Nc2nc3c(s2)-c2nc(-c4ccccc4Cl)ncc2CC3)n1 | < 800
50 | O=C(Nc1nc2c(s1)-c1nc(-c3ccccc3Cl)ncc1CC2)Nc1ccccc1CN1CCNC1=O | < 800
51 | O=C(NCc1cccc(N2CCOC2=O)c1)Nc1nc2c(s1)-c1nc(-c3ccccc3Cl)ncc1CC2 | < 800
52 | O=C(NCCc1cccnc1)Nc1nc2c(s1)-c1nc(-c3ccccc3Cl)ncc1CC2 | < 800
53 | COc1cccc(CNC(=O)Nc2nc3c(s2)-c2nc(-c4ccccc4Cl)ncc2CC3)c1OC | < 800
54 | O=C(NCCN1CCNC1=O)Nc1nc2c(s1)-c1nc(-c3ccccc3Cl)ncc1CC2 | < 800
55 | O=C(NCC1CCOCC1)Nc1nc2c(s1)-c1nc(-c3ccccc3Cl)ncc1CC2 | < 800

Second part, the molecule after the results:

Row | IC50 [nM] | Structure (SMILES)
56 | < 800 | O=C(NCc1cccc(OC(F)(F)F)c1)Nc1nc2c(s1)-c1nc(-c3ccccc3Cl)ncc1CC2
57 | < 800 | CC(C)(C)OC(=O)NCc1ccccc1NC(=O)Nc1nc2c(s1)-c1nc(-c3ccccc3Cl)ncc1CC2
58 | < 800 | O=C(NCc1cccc(NC(=O)N2CCOCC2)c1)Nc1nc2c(s1)-c1nc(-c3ccccc3Cl)ncc1CC2
59 | < 800 | COCCN(C)C(=O)Nc1nc2c(s1)-c1nc(-c3ccccc3Cl)ncc1CC2
60 | < 800 | Nc1c(Br)cc(OCC2CCN(C(=O)Nc3nc4c(s3)-c3nc(-c5ccccc5Cl)ncc3CC4)C2)cc1Br (stereo unspecified)
61 | < 800 | Cn1nc(CNC(=O)Nc2nc3c(s2)-c2nc(-c4ccccc4Cl)ncc2CC3)cc1O
62 | < 800 | CC(C)NC(=O)N[C@H]1CCN(C(=O)Nc2nc3c(s2)-c2nc(-c4ccccc4Cl)ncc2CC3)C1
63 | < 800 | O=C(Nc1nc2c(s1)-c1nc(-c3ccccc3Cl)ncc1CC2)N1CCC(n2cnc3ccccc32)CC1
64 | < 800 | O=C(NCc1cccc(N2CCCC2=O)c1)Nc1nc2c(s1)-c1nc(-c3ccccc3Cl)ncc1CC2
65 | < 800 | O=C(NCc1cccc(N2CCOCC2)c1)Nc1nc2c(s1)-c1nc(-c3ccccc3Cl)ncc1CC2
66 | < 800 | CC(C)C(=O)Nc1cccc(CNC(=O)Nc2nc3c(s2)-c2nc(-c4ccccc4Cl)ncc2CC3)c1
67 | < 800 | O=C(N[C@H]1CCN(C(=O)Nc2nc3c(s2)-c2nc(-c4ccccc4Cl)ncc2CC3)C1)C1CC1
68 | < 800 | CC(C)(C)OC(=O)NC1CCN(C(=O)Nc2nc3c(s2)-c2nc(-c4ccccc4Cl)ncc2CC3)C1 (stereo unspecified)
69 | < 800 | CC(C)CN(C)C(=O)c1cccc(CNC(=O)Nc2nc3c(s2)-c2nc(-c4ccccc4Cl)ncc2CC3)c1
70 | < 800 | Cc1c[nH]c(CCNC(=O)Nc2nc3c(s2)-c2nc(-c4ccccc4Cl)ncc2CC3)n1
71 | < 800 | CCc1nnc(CCNC(=O)Nc2nc3c(s2)-c2nc(-c4ccccc4C(F)(F)F)ncc2CC3)o1
72 | < 800 | CC(C)CN(C)C(=O)CCNC(=O)Nc1nc2c(s1)-c1nc(-c3ccccc3Cl)ncc1CC2
73 | < 800 | CCc1noc(CCNC(=O)Nc2nc3c(s2)-c2nc(-c4ccccc4Cl)ncc2CC3)n1

Row | IC50 [nM] | Structure (SMILES)
74 | < 800 | NC(=O)Nc1nc2c(s1)-c1nc(-c3ccccc3Br)ncc1CC2
75 | < 800 | CC(=O)NC1CCN(C(=O)Nc2nc3c(s2)-c2nc(-c4ccccc4Cl)ncc2CC3)C1 (stereo unspecified)
76 | < 800 | CCn1cnc(CCNC(=O)Nc2nc3c(s2)-c2nc(-c4ccccc4Br)ncc2CC3)c1
77 | < 800 | O=C(Nc1nc2c(s1)-c1nc(-c3ccccc3Cl)ncc1CC2)N1CCC(N2CCNC2=O)CC1
78 | < 800 | CC(C)(C)OC(=O)N[C@H]1CCN(C(=O)Nc2nc3c(s2)-c2nc(-c4ccccc4Cl)ncc2CC3)C1
79 | < 800 | CNC(=O)c1cccc(CNC(=O)Nc2nc3c(s2)-c2nc(-c4ccccc4Cl)ncc2CC3)c1
80 | < 800 | CN(C)CC(=O)N[C@H]1CCN(C(=O)Nc2nc3c(s2)-c2nc(-c4ccccc4Cl)ncc2CC3)C1
81 | < 800 | O=C(Nc1ccccc1)Nc1nc2c(s1)-c1nc(-c3ccccc3Cl)ncc1CC2
82 | < 800 | CCNC(=O)Nc1nc2c(s1)-c1nc(-c3ccccc3Br)ncc1CC2
83 | < 800 | NC(=O)N1Cc2ccc(CNC(=O)Nc3nc4c(s3)-c3nc(-c5ccccc5Cl)ncc3CC4)cc2C1
84 | < 800 | O=C(Nc1nc2c(s1)-c1nc(-c3ccccc3Cl)ncc1CC2)NC1CC1
85 | < 800 | CC(=O)N(C)c1cccc(CNC(=O)Nc2nc3c(s2)-c2nc(-c4ccccc4Cl)ncc2CC3)c1
86 | < 800 | O=C(Nc1nc2c(s1)-c1nc(-c3ccccc3Cl)ncc1CC2)N1CCCC(c2nc3ccccc3[nH]2)C1 (stereo unspecified)
87 | < 800 | CC(C)c1cnc(CCNC(=O)Nc2nc3c(s2)-c2nc(-c4ccccc4Cl)ncc2CC3)o1
88 | < 800 | O=C(Nc1nc2c(s1)-c1nc(-c3ccccc3Cl)ncc1CC2)NC1CCCCC1
89 | < 800 | O=C(NCCc1cccc(N2CCNC2=O)c1)Nc1nc2c(s1)-c1nc(-c3ccccc3Cl)ncc1CC2
90 | < 800 | CC(C)CNC(=O)c1cccc(CNC(=O)Nc2nc3c(s2)-c2nc(-c4ccccc4Cl)ncc2CC3)c1
91 | < 800 | CC(C)OCCNC(=O)Nc1nc2c(s1)-c1nc(-c3ccccc3Cl)ncc1CC2
